Measurements reported in US10092566B2, “Composition for controlling a gut immunity and use thereof” (SEOUL NATIONAL UNIVERSITY R&DB FOUNDATION, priority 2013, dated 2018).

How the values were obtained:
DUOX2 = test: ROS measurement in human epithelial cells (Caco-2, NHNE; DCF-DA); assay type: cell-based; details: uracil 50 nM, 15 minutes; Caco-2 and normal human nasal epithelial cells
From the text: Human middle turbinated bone specimens were obtained from healthy volunteers after the research proposal was approved by Yonsei University College of Medicine Audit Committee. The culture system used for normal human nasal epithelial (NHNE) cells is disclosed in the previous research (Yoon et al., Am J Respir Cell Mol Biol 16, pp. 724-731, 1997; Yoon et al., Ann Otol Rhinol Laryngol 109, pp. 594-601, 2000). Briefly speaking, two passages of NHNE cells (1×10^5 cells/culture) were inoculated into a Transwell-transparent culturing insert characterized by 24.5 mm and 0.45 μm pore sizes (Costar Co., Corning, N.Y., USA) containing 0.5 mL of culturing media. The cells were cultured in a 1:1 mixture containing basic epithelium growth media including all additives disclosed in the previous research (Yoon et al., Ann Otol Rhinol Laryngol 109, pp. 594-601, 2000) and Dulbecco' s Modified Eagle Medium (DMEM). […]
After stimulating NHNE cells or Caco-2 cells, the cells were washed with Hanks' balanced salt solution (HBSS), were placed in Krebs-Ringer solution containing 5 μM of 2′,7′-dichlorofluorescin diacetate (DCF-DA; Molecular Probes, Eugene Oreg., USA), and cultured in darkness for 10 minutes. […] Fluorescence was measured at an excitation wavelength of 488 nm and an emission wavelength ranging from 515 nm to 540 nm. […]

Upd3-JAK-STAT pathway = test: Epithelial cell renewal program and Upd3-JAK-STAT reporter analysis; assay type: in vivo, Drosophila
Protocol: To examine a renewal program for epithelial cells, a 5% sucrose solution containing 20 nM of uracil (for 16 hours) or different bacteria (approx. 5×10^8 cells; E. carotovora, E. carotovora-pyrE::Tn5 and E. carotovora-pyrE::Tn5-pyrE for 22 hours) was orally administered to genetically different adult Drosophila (5 to 6 days old). For the recovery experiment, Drosophila coingested URA− strain (E. carotovora-pyrE::Tn5) and 1 nM of uracil. Following the dissection of the gut, the gut was treated with primary antibodies [anti-phospho-histone H3 (1:2000 dilution; Millipore), anti-LacZ (1:1000 dilution; Cappel), or anti-Prospero (1:100 dilution; Developmental Studies Hybridoma Bank)]. Then, the gut was treated with secondary antibodies (Alexa Fluor 568 goat anti-rabbit IgG or Alexa Fluor 488 goat anti-murine IgG (Invitrogen)). DAPI was used for nuclear staining.
Drosophila containing esg-GAL4> UAS-GFP were used to analyze ISC proliferation and differentiation. A 5% sucrose solution containing 20 nM of uracil (for 16 hours) or different bacteria (E. carotovora, E. carotovora-pyrE::Tn5, and E. carotovora-pyrE::Tn5-pyrE, approx. 5×10^8 cells, for 22 hours) was orally administered to Drosophila (5 to 6 days old). For the recovery experiment, Drosophila coingested a URA− strain (E. carotovora-pyrE::Tn5) and 1 nM of uracil. […]

E. carotovora-pyrE::Tn5 = test: Gut infection and survival analysis; assay type: in vivo, Erwinia carotovora; details: coingestion of 1 nM uracil with E. carotovora-pyrE::Tn5
From the text: During the late exponential phase, different bacteria (E. carotovora, E. carotovora-pyrE::Tn5, E. carotovora-pyrE::Tn5-pyrE, E. carotovora-guaA::Tn5, and E. carotovora-purC::Tn5) were obtained by the centrifugation, and the pellets were washed with PBS and suspended in a 5% sucrose solution. Without a hunger stage, to continuously provide Drosophila with bacteria while being infected, male adult Drosophila (5 to 6 days old) were moved to the bottle with filter paper soaked with a 5% sucrose solution containing different bacteria. The filter paper was changed every day. During the recovery experiment, the coingestion of E. carotovora-pyrE::Tn5 (+uracil) and 1 nM of uracil or the expression of an E. carotovora-pyrE::Tn5 strain, which was genetically recovered by the expression of functional pyrE genes (+pyrE), was utilized.

## O=c1cc[nH]c(=O)[nH]1 [uracil]
DUOX2
  DUOX-dependent ROS generation in human mucosal epithelial cells: able to activate DUOX-dependent ROS generation
Upd3-JAK-STAT pathway; coingestion of 1 nM uracil with URA− strain E. carotovora-pyrE::Tn5
  restoration of infection-induced Upd3-JAK-STAT signaling, ISC proliferation, differentiation and enteroblast accumulation: sufficient to restore
Upd3-JAK-STAT pathway; uracil 20 nM, PLCβ-dependent
  Upd3-JAK-STAT pathway activation and epithelial cell renewal by uracil ingestion alone: sufficient to trigger
E. carotovora-pyrE::Tn5
  host survival rate after URA− pathogen infection: sufficient to restore the host survival rate
